Our source for the IC50 values is paper PMC5933747 (PLoS ONE, 2018).

The IC50 is the concentration that inhibits the measured activity by half.

In one data set the target is human NaV1.5 (Homo sapiens, UniProt Q14524). In words: IonWorks Quattro (IWQ) electrophysiology, human NaV1.5. Format: cell-based. Conditions: IWQ platform; single-residue Ala scan of JzTx-V; read-out: Ala mutant IWQ IC50 NaV1.5.
Chain of human NaV1.5 (Q14524 whole entry): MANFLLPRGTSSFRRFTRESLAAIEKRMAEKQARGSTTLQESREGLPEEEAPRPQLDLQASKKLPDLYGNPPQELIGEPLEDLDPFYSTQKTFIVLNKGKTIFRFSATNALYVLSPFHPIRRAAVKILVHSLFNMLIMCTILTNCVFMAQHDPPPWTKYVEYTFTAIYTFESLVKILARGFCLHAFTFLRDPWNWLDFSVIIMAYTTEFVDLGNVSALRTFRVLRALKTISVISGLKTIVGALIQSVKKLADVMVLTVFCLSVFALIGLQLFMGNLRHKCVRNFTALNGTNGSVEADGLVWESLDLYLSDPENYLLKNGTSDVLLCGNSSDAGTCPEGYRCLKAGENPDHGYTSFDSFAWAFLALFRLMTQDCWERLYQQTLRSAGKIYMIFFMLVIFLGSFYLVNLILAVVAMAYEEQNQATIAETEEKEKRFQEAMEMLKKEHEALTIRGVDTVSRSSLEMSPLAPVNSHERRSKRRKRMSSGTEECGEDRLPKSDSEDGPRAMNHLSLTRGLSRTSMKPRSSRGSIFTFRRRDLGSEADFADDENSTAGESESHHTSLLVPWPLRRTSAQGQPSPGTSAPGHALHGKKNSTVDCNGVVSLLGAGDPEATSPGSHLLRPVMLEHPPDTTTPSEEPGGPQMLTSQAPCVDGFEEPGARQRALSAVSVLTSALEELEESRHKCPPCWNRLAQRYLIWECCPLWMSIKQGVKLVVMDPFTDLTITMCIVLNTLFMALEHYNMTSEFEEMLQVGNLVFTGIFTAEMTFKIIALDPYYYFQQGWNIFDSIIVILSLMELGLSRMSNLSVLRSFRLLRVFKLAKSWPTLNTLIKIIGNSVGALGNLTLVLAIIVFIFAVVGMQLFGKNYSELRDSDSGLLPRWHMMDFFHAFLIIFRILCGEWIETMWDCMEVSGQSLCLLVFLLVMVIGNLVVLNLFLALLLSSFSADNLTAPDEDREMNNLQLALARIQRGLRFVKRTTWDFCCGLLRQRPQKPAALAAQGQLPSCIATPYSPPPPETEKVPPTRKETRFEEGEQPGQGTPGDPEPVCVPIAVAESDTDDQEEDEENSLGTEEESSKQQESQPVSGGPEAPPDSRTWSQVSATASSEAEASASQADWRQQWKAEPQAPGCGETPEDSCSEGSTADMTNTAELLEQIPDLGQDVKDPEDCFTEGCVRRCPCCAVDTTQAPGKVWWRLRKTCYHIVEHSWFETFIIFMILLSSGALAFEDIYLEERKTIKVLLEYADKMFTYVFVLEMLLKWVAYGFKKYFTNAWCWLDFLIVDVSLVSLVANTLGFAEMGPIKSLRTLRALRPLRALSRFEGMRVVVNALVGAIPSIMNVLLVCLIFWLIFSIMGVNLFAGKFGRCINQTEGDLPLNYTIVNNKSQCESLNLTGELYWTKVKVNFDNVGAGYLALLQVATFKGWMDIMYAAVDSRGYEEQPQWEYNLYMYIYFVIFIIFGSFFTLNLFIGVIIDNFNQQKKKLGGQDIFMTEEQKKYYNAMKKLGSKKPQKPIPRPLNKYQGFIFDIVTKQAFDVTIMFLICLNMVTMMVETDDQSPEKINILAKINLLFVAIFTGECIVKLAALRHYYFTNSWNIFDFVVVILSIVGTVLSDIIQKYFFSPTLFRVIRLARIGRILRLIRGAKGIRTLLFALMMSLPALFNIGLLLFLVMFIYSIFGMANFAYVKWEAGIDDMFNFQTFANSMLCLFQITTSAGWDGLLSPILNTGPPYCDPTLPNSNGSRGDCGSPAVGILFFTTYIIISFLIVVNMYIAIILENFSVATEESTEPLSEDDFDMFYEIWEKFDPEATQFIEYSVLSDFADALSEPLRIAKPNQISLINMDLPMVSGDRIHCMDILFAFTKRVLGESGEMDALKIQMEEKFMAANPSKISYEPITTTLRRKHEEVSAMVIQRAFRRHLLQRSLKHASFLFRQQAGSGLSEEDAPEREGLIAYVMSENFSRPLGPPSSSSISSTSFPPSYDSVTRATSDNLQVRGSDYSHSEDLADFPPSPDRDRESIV
As for `CC[C@H](C)[C@H](NC(=O)[C@@H](NC(=O)[C@H](CCCCN)NC(=O)[C@H](CCCNC(=N)N)NC(=O)[C@@H]1CSSC[C@@H]2NC(=O)[C@H](C)NC(=O)[C@H](CCCNC(=N)N)NC(=O)[C@H](CCCCN)NC(=O)[C@H](C)NC(=O)[C@H](CC(=O)O)NC(=O)[C@@H]3CSSC[C@H](NC(=O)[C@H](CCCNC(=N)N)NC(=O)[C@H](CC(C)C)NC(=O)CNC(=O)[C@H](CCC(=O)O)NC(=O)[C@H](CSSC[C@H](NC(=O)[C@@H](N)Cc4ccc(O)cc4)C(=O)N[C@@H](CCC(N)=O)C(=O)N[C@@H](CCCCN)C(=O)N[C@@H](Cc4c[nH]c5ccccc45)C(=O)N[C@@H](CCSC)C(=O)N[C@@H](Cc4c[nH]c5ccccc45)C(=O)N[C@@H]([C@@H](C)O)C(=O)N3)NC2=O)C(=O)N[C@@H](CCCCN)C(=O)N[C@@H](CC(C)C)C(=O)N[C@@H](Cc2c[nH]c3ccccc23)C(=O)N1)[C@@H](C)CC)C(N)=O` [S11 Ala mutant], the IC50 was determined as 3.56 µM.

Still in this data set, the particulars now being: human; read-out: Ala mutant IWQ IC50 NaV1.5.
Consider `CC[C@H](C)[C@H](NC(=O)[C@@H](NC(=O)[C@H](CCCCN)NC(=O)[C@H](CCCNC(=N)N)NC(=O)[C@@H]1CSSC[C@@H]2NC(=O)[C@H](C)NC(=O)[C@H](CCCNC(=N)N)NC(=O)[C@H](C)NC(=O)[C@H](CO)NC(=O)[C@H](CC(=O)O)NC(=O)[C@@H]3CSSC[C@H](NC(=O)[C@H](CCCNC(=N)N)NC(=O)[C@H](CC(C)C)NC(=O)CNC(=O)[C@H](CCC(=O)O)NC(=O)[C@H](CSSC[C@H](NC(=O)[C@@H](N)Cc4ccc(O)cc4)C(=O)N[C@@H](CCC(N)=O)C(=O)N[C@@H](CCCCN)C(=O)N[C@@H](Cc4c[nH]c5ccccc45)C(=O)N[C@@H](CCSC)C(=O)N[C@@H](Cc4c[nH]c5ccccc45)C(=O)N[C@@H]([C@@H](C)O)C(=O)N3)NC2=O)C(=O)N[C@@H](CCCCN)C(=O)N[C@@H](CC(C)C)C(=O)N[C@@H](Cc2c[nH]c3ccccc23)C(=O)N1)[C@@H](C)CC)C(N)=O` [K12 Ala mutant], for which the IC50 was over 5 µM. `CC[C@H](C)[C@H](NC(=O)[C@@H](NC(=O)[C@H](CCCCN)NC(=O)[C@H](CCCNC(=N)N)NC(=O)[C@@H]1CSSC[C@@H]2NC(=O)[C@H](C)NC(=O)[C@H](CCCNC(=N)N)NC(=O)[C@H](CCCCN)NC(=O)[C@H](CO)NC(=O)[C@H](CC(=O)O)NC(=O)[C@@H]3CSSC[C@H](NC(=O)[C@H](CCCNC(=N)N)NC(=O)[C@H](CC(C)C)NC(=O)CNC(=O)[C@H](CCC(=O)O)NC(=O)[C@H](CSSC[C@H](NC(=O)[C@@H](N)Cc4ccc(O)cc4)C(=O)N[C@@H](CCC(N)=O)C(=O)N[C@@H](CCCCN)C(=O)N[C@@H](Cc4c[nH]c5ccccc45)C(=O)N[C@@H](CCSC)C(=O)N[C@@H](Cc4c[nH]c5ccccc45)C(=O)N[C@@H]([C@@H](C)O)C(=O)N3)NC2=O)C(=O)N[C@@H](C)C(=O)N[C@@H](CC(C)C)C(=O)N[C@@H](Cc2c[nH]c3ccccc23)C(=O)N1)[C@@H](C)CC)C(N)=O` [K22 Ala mutant]: the IC50 was over 5 µM. Still for that read-out and setting: under `CC[C@H](C)[C@H](NC(=O)[C@@H](NC(=O)[C@H](CCCCN)NC(=O)[C@H](CCCNC(=N)N)NC(=O)[C@@H]1CSSC[C@@H]2NC(=O)[C@H](C)NC(=O)[C@H](CCCNC(=N)N)NC(=O)[C@H](CCCCN)NC(=O)[C@H](CO)NC(=O)[C@H](CC(=O)O)NC(=O)[C@@H]3CSSC[C@H](NC(=O)[C@H](CCCNC(=N)N)NC(=O)[C@H](CC(C)C)NC(=O)CNC(=O)[C@H](CCC(=O)O)NC(=O)[C@H](CSSC[C@H](NC(=O)[C@@H](N)Cc4ccc(O)cc4)C(=O)N[C@@H](CCC(N)=O)C(=O)N[C@@H](CCCCN)C(=O)N[C@@H](Cc4c[nH]c5ccccc45)C(=O)N[C@@H](CCSC)C(=O)N[C@@H](Cc4c[nH]c5ccccc45)C(=O)N[C@@H]([C@@H](C)O)C(=O)N3)NC2=O)C(=O)N[C@@H](CCCCN)C(=O)N[C@@H](C)C(=O)N[C@@H](Cc2c[nH]c3ccccc23)C(=O)N1)[C@@H](C)CC)C(N)=O` [L23 Ala mutant] stands over 5 µM; under `CC[C@H](C)[C@H](NC(=O)[C@@H](NC(=O)[C@H](CCCCN)NC(=O)[C@H](CCCNC(=N)N)NC(=O)[C@@H]1CSSC[C@@H]2NC(=O)[C@H](C)NC(=O)[C@H](CCCNC(=N)N)NC(=O)[C@H](CCCCN)NC(=O)[C@H](CO)NC(=O)[C@H](CC(=O)O)NC(=O)[C@@H]3CSSC[C@H](NC(=O)[C@H](CCCNC(=N)N)NC(=O)[C@H](CC(C)C)NC(=O)CNC(=O)[C@H](CCC(=O)O)NC(=O)[C@H](CSSC[C@H](NC(=O)[C@@H](N)Cc4ccc(O)cc4)C(=O)N[C@@H](CCC(N)=O)C(=O)N[C@@H](CCCCN)C(=O)N[C@@H](Cc4c[nH]c5ccccc45)C(=O)N[C@@H](C)C(=O)N[C@@H](Cc4c[nH]c5ccccc45)C(=O)N[C@@H]([C@@H](C)O)C(=O)N3)NC2=O)C(=O)N[C@@H](CCCCN)C(=O)N[C@@H](CC(C)C)C(=O)N[C@@H](Cc2c[nH]c3ccccc23)C(=O)N1)[C@@H](C)CC)C(N)=O` [M6 Ala mutant], over 5 µM; under `CC[C@H](C)[C@H](NC(=O)[C@@H](NC(=O)[C@H](CCCCN)NC(=O)[C@H](CCCNC(=N)N)NC(=O)[C@@H]1CSSC[C@@H]2NC(=O)[C@H](C)NC(=O)[C@H](C)NC(=O)[C@H](CCCCN)NC(=O)[C@H](CO)NC(=O)[C@H](CC(=O)O)NC(=O)[C@@H]3CSSC[C@H](NC(=O)[C@H](CCCNC(=N)N)NC(=O)[C@H](CC(C)C)NC(=O)CNC(=O)[C@H](CCC(=O)O)NC(=O)[C@H](CSSC[C@H](NC(=O)[C@@H](N)Cc4ccc(O)cc4)C(=O)N[C@@H](CCC(N)=O)C(=O)N[C@@H](CCCCN)C(=O)N[C@@H](Cc4c[nH]c5ccccc45)C(=O)N[C@@H](CCSC)C(=O)N[C@@H](Cc4c[nH]c5ccccc45)C(=O)N[C@@H]([C@@H](C)O)C(=O)N3)NC2=O)C(=O)N[C@@H](CCCCN)C(=O)N[C@@H](CC(C)C)C(=O)N[C@@H](Cc2c[nH]c3ccccc23)C(=O)N1)[C@@H](C)CC)C(N)=O` [R13 Ala mutant], over 5 µM. Take `CC[C@H](C)[C@H](NC(=O)[C@@H](NC(=O)[C@H](CCCCN)NC(=O)[C@H](CCCNC(=N)N)NC(=O)[C@@H]1CSSC[C@@H]2NC(=O)[C@H](C)NC(=O)[C@H](CCCNC(=N)N)NC(=O)[C@H](CCCCN)NC(=O)[C@H](CO)NC(=O)[C@H](CC(=O)O)NC(=O)[C@@H]3CSSC[C@H](NC(=O)[C@H](CCCNC(=N)N)NC(=O)[C@H](CC(C)C)NC(=O)CNC(=O)[C@H](CCC(=O)O)NC(=O)[C@H](CSSC[C@H](NC(=O)[C@@H](N)Cc4ccc(O)cc4)C(=O)N[C@@H](CCC(N)=O)C(=O)N[C@@H](CCCCN)C(=O)N[C@@H](Cc4c[nH]c5ccccc45)C(=O)N[C@@H](CCSC)C(=O)N[C@@H](Cc4c[nH]c5ccccc45)C(=O)N[C@@H](C)C(=O)N3)NC2=O)C(=O)N[C@@H](CCCCN)C(=O)N[C@@H](CC(C)C)C(=O)N[C@@H](Cc2c[nH]c3ccccc23)C(=O)N1)[C@@H](C)CC)C(N)=O` [T8 Ala mutant]: the IC50 is over 5 µM.

Staying with this data set, now noted: human; read-out: Glu mutant IWQ IC50 NaV1.5.
On to `CC[C@H](C)[C@H](NC(=O)[C@H](CCCCN)NC(=O)[C@H](CCCNC(=N)N)NC(=O)[C@@H]1CSSC[C@@H]2NC(=O)[C@H](C)NC(=O)[C@H](CCCNC(=N)N)NC(=O)[C@H](CCCCN)NC(=O)[C@H](CO)NC(=O)[C@H](CC(=O)O)NC(=O)[C@@H]3CSSC[C@H](NC(=O)[C@H](CCCNC(=N)N)NC(=O)[C@H](CC(C)C)NC(=O)CNC(=O)[C@H](CCC(=O)O)NC(=O)[C@H](CSSC[C@H](NC(=O)[C@@H](N)Cc4ccc(O)cc4)C(=O)N[C@@H](CCC(N)=O)C(=O)N[C@@H](CCCCN)C(=O)N[C@@H](Cc4c[nH]c5ccccc45)C(=O)N[C@@H](CCSC)C(=O)N[C@@H](Cc4c[nH]c5ccccc45)C(=O)N[C@@H]([C@@H](C)O)C(=O)N3)NC2=O)C(=O)N[C@@H](CCCCN)C(=O)N[C@@H](CC(C)C)C(=O)N[C@@H](Cc2c[nH]c3ccccc23)C(=O)N1)C(=O)N[C@@H](CCC(=O)O)C(N)=O` [I29 Glu mutant], for which the IC50 is over 5 µM. Turning to `CC[C@H](C)[C@H](NC(=O)[C@@H](NC(=O)[C@H](CCCCN)NC(=O)[C@H](CCCNC(=N)N)NC(=O)[C@@H]1CSSC[C@@H]2NC(=O)[C@H](C)NC(=O)[C@H](CCCNC(=N)N)NC(=O)[C@H](CCCCN)NC(=O)[C@H](CO)NC(=O)[C@H](CC(=O)O)NC(=O)[C@@H]3CSSC[C@H](NC(=O)[C@H](CCCNC(=N)N)NC(=O)[C@H](CC(C)C)NC(=O)CNC(=O)[C@H](CCC(=O)O)NC(=O)[C@H](CSSC[C@H](NC(=O)[C@@H](N)Cc4ccc(O)cc4)C(=O)N[C@@H](CCC(N)=O)C(=O)N[C@@H](CCCCN)C(=O)N[C@@H](Cc4c[nH]c5ccccc45)C(=O)N[C@@H](CCSC)C(=O)N[C@@H](Cc4c[nH]c5ccccc45)C(=O)N[C@@H]([C@@H](C)O)C(=O)N3)NC2=O)C(=O)N[C@@H](CCCCN)C(=O)N[C@@H](CCC(=O)O)C(=O)N[C@@H](Cc2c[nH]c3ccccc23)C(=O)N1)[C@@H](C)CC)C(N)=O` [L23 Glu mutant], the IC50 was over 5 µM. As for `CC[C@H](C)[C@H](NC(=O)[C@@H](NC(=O)[C@H](CCCCN)NC(=O)[C@H](CCCNC(=N)N)NC(=O)[C@@H]1CSSC[C@@H]2NC(=O)[C@H](C)NC(=O)[C@H](CCCNC(=N)N)NC(=O)[C@H](CCCCN)NC(=O)[C@H](CCC(=O)O)NC(=O)[C@H](CC(=O)O)NC(=O)[C@@H]3CSSC[C@H](NC(=O)[C@H](CCCNC(=N)N)NC(=O)[C@H](CC(C)C)NC(=O)CNC(=O)[C@H](CCC(=O)O)NC(=O)[C@H](CSSC[C@H](NC(=O)[C@@H](N)Cc4ccc(O)cc4)C(=O)N[C@@H](CCC(N)=O)C(=O)N[C@@H](CCCCN)C(=O)N[C@@H](Cc4c[nH]c5ccccc45)C(=O)N[C@@H](CCSC)C(=O)N[C@@H](Cc4c[nH]c5ccccc45)C(=O)N[C@@H]([C@@H](C)O)C(=O)N3)NC2=O)C(=O)N[C@@H](CCCCN)C(=O)N[C@@H](CC(C)C)C(=O)N[C@@H](Cc2c[nH]c3ccccc23)C(=O)N1)[C@@H](C)CC)C(N)=O` [S11 Glu mutant], the IC50 was over 5 µM.
